Some test systems named below: 786-0; HCT-116; HCT-15; HL-60; M14; NCI-H226; NCI-H460; OVCAR-4; OVCAR-5; OVCAR-8; SF-295; SF-539; SNB-75; T47D; TK-10; UACC-257; UO-31; RXF 393; SK-MEL-2; Malme-3M.
Common to all, as to assay: NCI anticancer screen, dose series, 48 h

This note sets out measurements from ChEMBL document CHEMBL1201862, “PubChem BioAssay data set” (2004).

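Grown in 96-well plates, cells were treated for 48 hours with each compound at five concentrations. Insufficient inhibition: endpoint recorded as highest concentration tested. At the GI50, growth is halved.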 The source made the active and inactive calls. No stated cut-off is given here; in the data, active = GI50 up to about 1.1 µM and inactive = higher. Residues, ends and D or L forms follow the SMILES beside them. *: point of attachment. Cbz = O=C(OCc1ccccc1)*; Boc = CC(C)(C)OC(=O)*; OSu = O=C1CCC(=O)N1O*; Bn = c1ccc(C*)cc1

Turning to `O=C1N2CCN=C2c2ccccc2C1(O)c1ccccc1` (stereo not drawn), the GI50 in the assay on 786-0 is > 100 µM (inactive); with HCT-116, > 100 µM (inactive); with HCT-15, > 100 µM; in the assay on HL-60, > 100 µM (inactive); in the assay with M14, > 100 µM (inactive); in the assay with NCI-H226, > 100 µM (inactive). Moreover, the GI50 in the assay on NCI-H460, in the assay with OVCAR-4, in the assay with OVCAR-5, with OVCAR-8, in the assay with SF-295 and in the assay on SF-539 was > 100 µM (inactive) throughout. Also, the GI50 with SNB-75, with T47D, in the assay with TK-10, in the assay on UACC-257 and in the assay with UO-31 was > 100 µM (inactive) each time.
In the case of `C=CCCCC1(C)CCNC1=S` (stereo not drawn), the GI50 with 786-0 was > 100 µM (inactive); in the assay with HCT-116, > 100 µM (inactive); in the assay with HCT-15 it was > 100 µM; in the assay on M14, > 100 µM (inactive); with NCI-H460, > 100 µM (inactive); in the assay with OVCAR-4, > 100 µM (inactive). Besides, the GI50 in the assay with OVCAR-5, in the assay on OVCAR-8, in the assay on RXF 393, with SF-295, in the assay on SF-539 and in the assay with SK-MEL-2 was > 100 µM (inactive) in each case. Also, the GI50 in the assay with SNB-75, in the assay with T47D, with TK-10, in the assay with UACC-257 and in the assay with UO-31 was > 100 µM (inactive) each time.
In the case of `O=C1CSC(c2ccccc2)N1c1ccc(-c2ccc(-n3c(-c4ccccc4)nc4ccccc4c3=O)cc2)cc1` (stereo not drawn), the GI50 in the assay on 786-0 was 55 µM (inactive); in the assay with HCT-15 it was 29.2 µM; in the assay on HL-60, 27.4 µM (inactive); with M14, 50 µM (inactive); with Malme-3M, 35.4 µM (inactive); in the assay on NCI-H460, 46 µM (inactive). The GI50 in the assay on OVCAR-4 is 30.5 µM (inactive); in the assay on OVCAR-5, > 100 µM (inactive); in the assay on OVCAR-8, 44.4 µM (inactive); with SF-295, 64.3 µM (inactive); with SK-MEL-2, 25.5 µM (inactive); in the assay with T47D it was 25 µM (inactive). The GI50 in the assay with TK-10 is 57.9 µM (inactive); in the assay with UACC-257, > 100 µM (inactive); with UO-31 it was 49.8 µM (inactive).
Turning to `C[C@H](CSC(=O)c1ccccc1)C(=O)N1c2ccccc2C[C@H]1C(=O)O`, the GI50 in the assay with 786-0 is > 10 µM (inactive); with HCT-116, 41.2 µM (inactive); in the assay with HCT-15, 30.5 µM; in the assay on HL-60, 33.7 µM (inactive); in the assay on NCI-H226, > 100 µM (inactive); in the assay on NCI-H460, > 10 µM (inactive). The GI50 in the assay with OVCAR-4 is > 100 µM (inactive); in the assay with OVCAR-5 it was > 100 µM (inactive); with OVCAR-8, > 100 µM (inactive); in the assay with SF-295, > 100 µM (inactive); in the assay on SF-539 it was > 100 µM (inactive); in the assay with SNB-75, 35.3 µM (inactive). For the same molecule, the GI50 in the assay on T47D is > 100 µM (inactive); in the assay on TK-10, > 100 µM (inactive); in the assay on UACC-257 it was > 100 µM (inactive); in the assay with UO-31 it was 86.3 µM (inactive).
Turning to `C[C@H]1S[C@H](c2c(F)cccc2F)n2c1nc1ccccc12`, the GI50 was 64.9 µM (inactive) in the assay on 786-0; 34.6 µM (inactive) with HCT-116; 47 µM in the assay with HCT-15; 38.5 µM (inactive) with M14; 41.5 µM (inactive) in the assay on Malme-3M; > 100 µM (inactive) in the assay with NCI-H226. Also, the GI50 in the assay on NCI-H460 is 25.4 µM (inactive); in the assay on OVCAR-4, 45.5 µM (inactive); with OVCAR-5, 66.8 µM (inactive); with OVCAR-8 it was 69 µM (inactive); with RXF 393 it was 28.6 µM (inactive); in the assay on SF-295, 39.1 µM (inactive). In addition, the GI50 with SK-MEL-2 is 15.1 µM (inactive); in the assay with SNB-75, > 100 µM (inactive); in the assay on T47D, 29.2 µM (inactive); with TK-10, > 100 µM (inactive); with UACC-257, 50.2 µM (inactive); in the assay with UO-31, 34.4 µM (inactive).
Consider `N#CC1C(=O)Nc2sc(C(=O)c3ccc(Br)cc3)c(N)c2C12CCCCC2` (stereo not drawn), for which the GI50 is 31.4 µM (inactive) in the assay on 786-0; 15.8 µM (inactive) in the assay with HCT-116; 16 µM in the assay with HCT-15; 13.3 µM (inactive) in the assay with M14; 26.1 µM (inactive) in the assay with Malme-3M; 7.8 µM (inactive) in the assay with NCI-H226. For the same molecule, the GI50 in the assay with NCI-H460 is 28.2 µM (inactive); in the assay with OVCAR-4, 18 µM (inactive); in the assay with OVCAR-5, 40.5 µM (inactive); in the assay with OVCAR-8 it was 39.8 µM (inactive); in the assay with RXF 393, 7.96 µM (inactive); in the assay on SF-295, 30.5 µM (inactive). The GI50 in the assay on SF-539 is 17.2 µM (inactive); with SK-MEL-2, 14.2 µM (inactive); in the assay on SNB-75 it was 33.1 µM (inactive); in the assay on T47D, 12.3 µM (inactive); in the assay with TK-10, 33.2 µM (inactive); in the assay with UACC-257 it was 23.6 µM (inactive). Besides, in the assay with UO-31, the GI50 is 16.8 µM (inactive).
Consider `N#Cc1c(N2CCOCC2)ncn(-c2ccccc2)c1=O`, for which the GI50 in the assay with 786-0 was > 100 µM (inactive); with HCT-116 it was > 100 µM (inactive); in the assay with HCT-15, > 100 µM; in the assay with HL-60, 3.08 µM (inactive); in the assay with M14 it was > 100 µM (inactive); with NCI-H226, > 100 µM (inactive). Also, the GI50 with NCI-H460, in the assay with OVCAR-5, in the assay on OVCAR-8, in the assay on SF-295, in the assay with SF-539 and in the assay on SK-MEL-2 was > 100 µM (inactive) in each case. For the same molecule, the GI50 with SNB-75 is > 100 µM (inactive); in the assay with T47D, > 100 µM (inactive); with UACC-257 it was > 100 µM (inactive); in the assay on UO-31, 59.4 µM (inactive).
As for `COc1cccc2c(Nc3ccc(S(=O)(=O)N=C(N)N)cc3)c3ccc([N+](=O)[O-])cc3nc12`, the GI50 is 11.5 µM (inactive) in the assay with 786-0; 16.6 µM (inactive) in the assay with HCT-116; 30 µM in the assay on HCT-15; 16.3 µM (inactive) with M14; 10.7 µM (inactive) in the assay on Malme-3M; 38.8 µM (inactive) in the assay with NCI-H226. Besides, the GI50 is 4.32 µM (inactive) in the assay with NCI-H460; 37.7 µM (inactive) in the assay on OVCAR-4; 44.6 µM (inactive) in the assay with OVCAR-5; 15.7 µM (inactive) with OVCAR-8; 40.4 µM (inactive) in the assay with RXF 393; 29.4 µM (inactive) in the assay on SF-295. Moreover, the GI50 is 4.85 µM (inactive) in the assay on SF-539; 14.3 µM (inactive) with SK-MEL-2; 1.35 µM (inactive) in the assay on T47D; 25.6 µM (inactive) in the assay on TK-10; 17.4 µM (inactive) in the assay on UACC-257; 16.3 µM (inactive) in the assay on UO-31.
Consider `O=c1c2c3c(sc2nc2n1N=CN(c1ccc(Cl)cc1)C2)CCCC3`, for which the GI50 in the assay on 786-0 was 19.3 µM (inactive); in the assay with HCT-116 it was 26.9 µM (inactive); in the assay on HCT-15, 19.7 µM; in the assay with M14, > 100 µM (inactive); in the assay on Malme-3M, 16.2 µM (inactive); with NCI-H226, 42.3 µM (inactive). Also, the GI50 in the assay with NCI-H460 is 38 µM (inactive); in the assay with OVCAR-4, 52.6 µM (inactive); with OVCAR-5, > 100 µM (inactive); in the assay with OVCAR-8 it was 83.8 µM (inactive); in the assay on RXF 393, 12.3 µM (inactive); in the assay with SF-295, 70.1 µM (inactive). The GI50 is 43.2 µM (inactive) in the assay on SK-MEL-2; 24.7 µM (inactive) with SNB-75; 2.21 µM (inactive) with T47D; > 100 µM (inactive) with TK-10; 55.7 µM (inactive) in the assay on UACC-257; > 100 µM (inactive) in the assay with UO-31.
With `O=C1CCCCC/C1=C\c1ccccc1`, the GI50 was > 100 µM (inactive) in the assay on 786-0; > 100 µM (inactive) in the assay with HCT-116; > 100 µM in the assay on HCT-15; 18.2 µM (inactive) in the assay on HL-60; > 100 µM (inactive) with M14; > 100 µM (inactive) in the assay on Malme-3M. For the same molecule, the GI50 was 67.1 µM (inactive) with NCI-H226; 90.6 µM (inactive) in the assay on NCI-H460; 67.6 µM (inactive) in the assay with OVCAR-4; > 100 µM (inactive) in the assay with OVCAR-5; > 100 µM (inactive) in the assay on SF-295; > 100 µM (inactive) in the assay on SK-MEL-2. Also, the GI50 with SNB-75 was 87.3 µM (inactive); in the assay with T47D, > 100 µM (inactive); in the assay on TK-10, > 100 µM (inactive); with UACC-257, > 100 µM (inactive); with UO-31, > 100 µM (inactive).
In the case of `CC(C)(C)OC(=O)NC(Cc1ccc(OCc2ccccc2)cc1)C(=O)NC(CCCCNC(=O)OCc1ccccc1)C(=O)NC(CCCCNC(=O)OCc1ccccc1)C(=O)ON1C(=O)CCC1=O` (stereo not drawn) (Boc-Tyr(Bn)-Lys(Cbz)-Lys(Cbz)-OSu; configuration not given here), the GI50 was 20.8 µM (inactive) in the assay on 786-0; 24.9 µM (inactive) in the assay with HCT-116; > 100 µM with HCT-15; > 100 µM (inactive) in the assay on M14; 54.3 µM (inactive) in the assay on Malme-3M; 71.1 µM (inactive) in the assay on NCI-H460. Further, the GI50 with OVCAR-4 was 60.7 µM (inactive); in the assay with OVCAR-5 it was 36.7 µM (inactive); with OVCAR-8, 29.1 µM (inactive); with RXF 393 it was 39.4 µM (inactive); in the assay on SF-295 it was 24 µM (inactive); in the assay on SK-MEL-2, 38.4 µM (inactive). The GI50 in the assay with SNB-75 is 51.6 µM (inactive); with T47D it was 21 µM (inactive); in the assay on TK-10, > 100 µM (inactive); with UACC-257, > 100 µM (inactive); in the assay on UO-31 it was > 100 µM (inactive).
